Our source for the IC50 values is patent US10174024B2, “5H-pyrido[3,2-B]indole compounds as anticancer agents” (BRISTOL-MYERS SQUIBB COMPANY, priority 2015, dated 2019).

The term IC50 denotes the concentration that gives 50% inhibition.

This assay addresses BRD4 (Homo sapiens, UniProt O60885). The assay is described as follows: Time Resolved Fluorescence Resonance Energy Transfer (TR-FRET) binding assay, FRET BRD4. Conditions: one of the FRET assays described (BRD4 bromodomain construct not specified); read-out: FRET BRD4 IC50. A general note: Time-resolved FRET reads energy transfer from a long-lived donor to a nearby acceptor.
Take `Cc1n[nH]c(C)c1-c1ccc2c3ncc(-c4c(C)nnn4C)cc3n([C@H](c3ccccc3)C3CCOCC3)c2c1` [Example 17, 5-[7-(3,5-Dimethyl-1H-pyrazol-4-yl)-5-[(S)-oxan-4-yl(phenyl)methyl]-5H-pyrido[3,2-b]indol-3-yl]-1,4-dimethyl-1H-1,2,3-triazole]: the IC50 was under 1 nM.

Take `Cc1nnn(C)c1-c1cnc2c3ccc(N4CCC(C(F)(F)F)CC4)cc3n(C(c3ccccc3)C3CCC(F)(F)CC3)c2c1` (single isomer, unassigned) [Example 78, 1-{5-[(4,4-Difluorocyclohexyl)(phenyl)methyl]-3-(dimethyl-1H-1,2,3-triazol-5-yl)-5H-pyrido[3,2-b]indol-7-yl}-4-(trifluoromethyl)piperidine]: the IC50 was under 5 nM.

Turning to `[2H]C([2H])([2H])c1nnn(C)c1-c1cnc2c3c(N4CCCS4(=O)=O)ccc(S(C)(=O)=O)c3n(C(c3ncccc3F)C3CCOCC3)c2c1` (stereo not shown) [Example 36, 2-{5-[(3-Fluoropyridin-2-yl)(oxan-4-yl)methyl]-6-methanesulfonyl-3-[4-(^2H3)methyl-1-methyl-1H-1,2,3-triazol-5-yl]-5H-pyrido[3,2-b]indol-9-yl}-1λ^6,2-thiazolidine-1,1-dione], the IC50 was under 1500 nM.

Take `[2H]C([2H])([2H])c1nnn(C)c1-c1cnc2c3c(N4CCCS4(=O)=O)ccc(S(C)(=O)=O)c3n([C@H](c3ccc(F)cc3)C3CCOCC3)c2c1` [Example 33, 2-{5-[(S)-(4-Fluorophenyl)(oxan-4-yl)methyl]-6-methanesulfonyl-3-[4-(^2H3)methyl-1-methyl-1H-1,2,3-triazol-5-yl]-5H-pyrido[3,2-b]indol-9-yl}-1λ^6,2-thiazolidine-1,1-dione]: the IC50 was under 1 nM.

For `Cc1nnn(C)c1-c1cnc2c3ccc(N4CCC(F)(F)CC4)cc3n(C(c3ccccc3)C3CCC(F)(F)CC3)c2c1` (single isomer, unassigned) [Example 76, 1-{5-[(4,4-Difluorocyclohexyl)(phenyl)methyl]-3-(dimethyl-1H-1,2,3-triazol-5-yl)-5H-pyrido[3,2-b]indol-7-yl}-4,4-difluoropiperidine], the IC50 was under 5 nM.

`[2H]C([2H])([2H])c1nnn(C)c1-c1cnc2c3ccc(C4(O)CCOC4)c(F)c3n([C@H](c3ccccc3)C3CCOCC3)c2c1` (stereo partly drawn) [Example 64, 3-{6-Fluoro-3-[4-(^2H3)methyl-1-methyl-1H-1,2,3-triazol-5-yl]-5-[(S)-oxan-4-yl(phenyl)methyl]-5H-pyrido[3,2-b]indol-7-yl}oxolan-3-ol]: the IC50 is under 1 nM.

For `CC(=O)N1CCC(c2ccc3c(c2)c2ncc(-c4c(C)noc4C)cc2n3[C@H](c2ccccc2)C2CCOCC2)CC1` [Example 7, 1-{4-[3-(Dimethyl-1,2-oxazol-4-yl)-5-[(S)-oxan-4-yl(phenyl)methyl]-5H-pyrido[3,2-b]indol-8-yl]piperidin-1-yl}ethan-1-one], the IC50 is under 1 nM.

Take “4-{5-[(3-Fluoropyridin-2-yl)(oxan-4-yl)methyl]-3-[4-(^2H3)methyl-1-methyl-1H-1,2,3-triazol-5-yl]-5H-pyrido[3,2-b]indol-7-yl}-1λ^6,4-thiomorpholine-1,1-dione [Example 68]”: the IC50 was under 5 nM.

With `Cc1nnn(C)c1-c1cnc2c3ccc(N4CCN(C(=O)N(C)C)CC4)cc3n([C@H](c3ccccc3)C3CCOCC3)c2c1` [Example 49, 4-[3-(Dimethyl-1H-1,2,3-triazol-5-yl)-5-[(S)-oxan-4-yl(phenyl)methyl]-5H-pyrido[3,2-b]indol-7-yl]-N,N-dimethylpiperazine-1-carboxamide], the IC50 was under 5 nM.

In the case of `[2H]C([2H])([2H])c1nnn(C)c1-c1ccc2c3ncc(-c4c(C([2H])([2H])[2H])nnn4C)cc3n(C(c3ncccc3F)C3CCOCC3)c2c1` (stereo not shown) [Example 27, 2-({3,7-Bis[4-(^2H3)methyl-1-methyl-1H-1,2,3-triazol-5-yl]-5H-pyrido[3,2-b]indol-5-yl}(oxan-4-yl)methyl)-3-fluoropyridine], the IC50 was under 5 nM.

Take `Cc1nnn(C)c1-c1cnc2c3cc(N4CCNCC4)ccc3n([C@H](c3ccccc3)C3CCOCC3)c2c1` [Example 13, 1-[3-(Dimethyl-1H-1,2,3-triazol-5-yl)-5-[(S)-oxan-4-yl(phenyl)methyl]-5H-pyrido[3,2-b]indol-8-yl]piperazine]: the IC50 is under 5 nM.

With `[2H]C([2H])([2H])c1nnn(C)c1-c1cnc2c3cc(N4CCN(S(C)(=O)=O)CC4)ccc3n([C@H](c3ccccc3F)C3CCOCC3)c2c1` [Example 42, 1-{5-[(S)-(2-Fluorophenyl)(oxan-4-yl)methyl]-3-[4-(^2Ha)methyl-1-methyl-1H-1,2,3-triazol-5-yl]-5H-pyrido[3,2-b]indol-8-yl}-4-methanesulfonylpiperazine], the 50% inhibitory concentration (IC50) is under 5 nM.

On to `Cc1nnn(C)c1-c1cnc2c3ccc(C4(C)CNC(=O)O4)cc3n([C@H](c3ccccc3)C3CCOCC3)c2c1` (single isomer, unassigned) [Example 9], for which the IC50 was under 5 nM.

For the compound `[2H]C([2H])([2H])c1nnn(C)c1-c1cnc2c3c(N4CCC(F)(F)CC4)ccc(S(C)(=O)=O)c3n(C(c3ccccc3)C3CCC(F)(F)CC3)c2c1` (stereo not shown) [Example 74, 1-{5-[(4,4-Difluorocyclohexyl)(phenyl)methyl]-6-methanesulfonyl-3-[4-(^2H3)methyl-1-methyl-1H-1,2,3-triazol-5-yl]-5H-pyrido[3,2-b]indol-9-yl}-4,4-difluoropiperidine], the IC50 was under 1500 nM.

Consider `Cc1nnn(C)c1-c1cnc2c3ccc(N4CCCOC4=O)cc3n([C@H](c3ccccc3)C3CCOCC3)c2c1` [Example 12, 3-[3-(Dimethyl-1H-1,2,3-triazol-5-yl)-5-[(S)-oxan-4-yl(phenyl)methyl]-5H-pyrido[3,2-b]indol-7-yl]-1,3-oxazinan-2-one], for which the IC50 is under 5 nM.

`[2H]C([2H])([2H])c1nnn(C)c1-c1cnc2c3c(N4CCCS4(=O)=O)ccc(S(C)(=O)=O)c3n([C@]([2H])(c3ccccc3)C3CCOCC3)c2c1` [Example 38, 2-{6-Methanesulfonyl-3-[4-(^2H3)methyl-1-methyl-1H-1,2,3-triazol-5-yl]-5-[(S)-oxan-4-yl(phenyl)(^2H)methyl]-5H-pyrido[3,2-b]indol-9-yl}-1λ^6,2-thiazolidine-1,1-dione]: the IC50 was under 5 nM.

Take `[2H]C([2H])([2H])c1nnn(C)c1-c1cnc2c3ccc(C4(O)CCOCC4)c(F)c3n([C@H](c3ccccc3)C3CCOCC3)c2c1` [Example 62, 4-{6-Fluoro-3-[4-(^2H3)methyl-1-methyl-1H-1,2,3-triazol-5-yl]-5-[(S)-oxan-4-yl(phenyl)methyl]-5H-pyrido[3,2-b]indol-7-yl}oxan-4-ol]: the IC50 was under 1 nM.

Regarding `Cc1nnn(C)c1-c1cnc2c3ccc(N4CCN(C5CCN(C)CC5)CC4)cc3n([C@H](c3ccccc3)C3CCOCC3)c2c1` [Example 48, 1-[3-(Dimethyl-1H-1,2,3-triazol-5-yl)-5-[(S)-oxan-4-yl(phenyl)methyl]-5H-pyrido[3,2-b]indol-7-yl]-4-(1-methylpiperidin-4-yl)piperazine], the IC50 is under 1 nM.

Turning to `[2H]C([2H])([2H])c1nnn(C)c1-c1cnc2c3ccc(C4(O)CCOC4)c(F)c3n([C@H](c3ccccc3)C3CCOCC3)c2c1` (stereo partly drawn) [Example 63, 3-{6-Fluoro-3-[4-(^2H3)methyl-1-methyl-1H-1,2,3-triazol-5-yl]-5-[(S)-oxan-4-yl(phenyl)methyl]-5H-pyrido[3,2-b]indol-7-yl}oxolan-3-ol], the IC50 was under 1 nM.
